Data on one compound can be found in patent US8546428B2 (priority 2006, dated 2013).

A short description of data set [1]: hygroscopicity of the salt. It is filed as physicochemical.
For data set [2] the following is noted: in vivo, po.

Regarding `COc1nc2ccc(Br)cc2cc1[C@@H](c1ccccc1)[C@@](O)(CCN(C)C)c1cccc2ccccc12.O=C(O)/C=C/C(=O)O` [Present fumarate salt, (alpha S, beta R)-6-bromo-alpha-[2-(dimethylamino)ethyl]-2-methoxy-alpha-1-naphthalenyl-beta-phenyl-3-quinolineethanol (2E)-2-butenedioate (1:1)], the hygroscopicity result in data set [1] is “non-hygroscopic”. Further, in data set [2], the “bioavailability, fed subjects compared to fasted subjects” value is recorded as “higher bioavailability”.
